From patent US8338450B2, “Compounds as dipeptidyl peptidase IV (DPP IV) inhibitors” (Lupin Limited, priority 2007, dated 2012) come the findings set out here.

Counter-ions that a name gives are not always drawn.

The target in one assay is T1, human recombinant DPP-IV (Homo sapiens, UniProt P27487).
T1 construct: purchased R&D Systems, USA (or produced in-house)
T1 sequence (P27487 whole entry): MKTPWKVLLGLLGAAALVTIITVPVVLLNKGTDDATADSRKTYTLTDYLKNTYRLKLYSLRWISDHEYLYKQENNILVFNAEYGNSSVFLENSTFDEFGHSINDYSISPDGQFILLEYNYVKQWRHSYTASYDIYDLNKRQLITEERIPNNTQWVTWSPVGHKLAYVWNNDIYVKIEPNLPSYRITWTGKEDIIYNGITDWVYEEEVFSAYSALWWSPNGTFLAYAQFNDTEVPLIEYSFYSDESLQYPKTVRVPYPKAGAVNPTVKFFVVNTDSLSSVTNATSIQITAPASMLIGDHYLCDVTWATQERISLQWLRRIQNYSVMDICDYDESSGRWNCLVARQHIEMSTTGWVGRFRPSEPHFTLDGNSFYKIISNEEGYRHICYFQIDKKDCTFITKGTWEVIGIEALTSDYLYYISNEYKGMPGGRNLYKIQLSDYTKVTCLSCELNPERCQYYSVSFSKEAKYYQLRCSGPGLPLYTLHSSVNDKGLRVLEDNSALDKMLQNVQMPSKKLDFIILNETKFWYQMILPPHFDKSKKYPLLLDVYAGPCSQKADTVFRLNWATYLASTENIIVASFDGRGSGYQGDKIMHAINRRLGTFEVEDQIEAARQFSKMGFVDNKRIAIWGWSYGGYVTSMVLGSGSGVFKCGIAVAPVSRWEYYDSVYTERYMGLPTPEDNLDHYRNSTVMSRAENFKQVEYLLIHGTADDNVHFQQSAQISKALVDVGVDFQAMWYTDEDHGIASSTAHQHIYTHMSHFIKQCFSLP
Kind of assay: Inhibition of human recombinant DPP-IV (Gly-Pro-AMC hydrolysis, fluorometric). It counts as biochemical. Particulars: compound 10 nM; relative to vehicle controls. As to the method: Inhibition of Human Recombinant DPP-IV
The proteolytic activity of human recombinant DPP-IV was determined by following the hydrolysis of Gly-Pro-7-amino-4-methylcoumarin (Gly-Pro-AMC) and the fluorometric quantitation of the liberated AMC. Assays were routinely carried out in 96-well flat-bottom black microwell plates. The reaction mixture (100 μl) contained 10 ng of human recombinant DPP-IV enzyme (produced in-house or procured from R&D Systems, USA) in the assay buffer (25 mM Tris-HCl, pH 7.4, 140 mM NaCl, 10 mM KCl and 0.1 mg/ml BSA) and 50 μM Gly-Pro-AMC. After incubation of assay plates at 30° C. for 30 min, the hydrolysis of Gly-Pro-AMC was monitored in a fluorescence microplate reader (Molecular Devices SpectraMax M5), with excitation and emission wavelengths set at 360 nm and 460 nm, respectively.
The inhibition of DPP-IV activity by test compounds was routinely performed by preincubating the enzyme with test compound (10 and 100 nM for primary screening and 8 concentrations from 0.1 to 1000 nM for the dose-response study) or vehicle (0.01% DMSO) for 15 min at 30° C., in a total volume of 90 μl. Test compounds were dissolved in DMSO at a concentration of 10 mM and serially diluted further in assay buffer. The enzyme reaction was initiated by the addition of Gly-Pro-AMC, followed by incubation of assay plates for 30 min at 30° C. and the liberated AMC was measured as described above. A known inhibitor of DPP-IV (positive control) was always included in the assay. Test compounds at various concentrations were always evaluated in duplicate, along with substrate blanks, vehicle controls and positive controls.
The results are expressed as percent inhibition of the enzyme activity relative to vehicle controls. Dose-response studies were conducted for those compounds exerting ≧50% inhibition of activity at 10 nM in primary screening. IC50, defined as the inhibitor concentration which caused a 50% decrease of the activity under assay conditions, was computed using GraphPad Prism software, version 5.0.
The DPP-IV inhibition data (expressed either as IC50 in nanomolar or percent inhibition at a particular compound concentration) is presented in Table 1.
In the case of `N#C[C@@H]1C[C@@H]2C[C@@H]2N1C(=O)[C@@H](N)C1CC2CCC(C1)N2C(=O)c1ccco1.O=C(O)C(F)(F)F` (stereo partly drawn) [Compound 40, (1S,3S,5S)-2-{(2S)-2-Amino-2-[8-(furan-2-carbonyl)-8-aza-bicyclo[3.2.1]oct-3-yl]-exo-ethanoyl}-2-azabicyclo[3.1.0]hexane-3-carbonitrile trifluoroacetic acid salt], the “% inhibition at 10 nM” value is on record as 44% inhibition at 10 nM.
The same measure, in the same setting: the value for `N#C[C@@H]1C[C@@H]2C[C@@H]2N1C(=O)[C@@H](N)C1CC2CCC(C1)N2CCC(F)(F)F.O=C(O)C(F)(F)F` (stereo partly drawn) [Compound 47, (1S,3S,5S)-2-{(2S)-2-Amino-2-[8-(3,3,3-trifluoropropyl)-8-aza-bicyclo[3.2.1]oct-3-yl]-exo-ethanoyl}-2-azabicyclo[3.1.0]hexane-3-carbonitrile trifluoroacetic acid salt] was 29% inhibition at 10 nM; that for `N#C[C@@H]1C[C@@H]2C[C@@H]2N1C(=O)[C@@H](N)C1CC2CCC(C1)N2CC1CCCCC1.O=C(O)C(F)(F)F` (stereo partly drawn) [Compound 48, (1S,3S,5S)-2-{(2S)-2-Amino-2-[8-(cyclohexylmethyl)-8-aza-bicyclo[3.2.1]oct-3-yl]-exo-ethanoyl}-2-azabicyclo-[3.1.0]hexane-3-carbonitrile trifluoroacetic acid salt] was 22% inhibition at 10 nM; that for `N#C[C@@H]1C[C@@H]2C[C@@H]2N1C(=O)[C@@H](N)C1CC2CCC(C1)N2CCOCc1ccccc1.O=C(O)C(F)(F)F` (stereo partly drawn) [Compound 50, (1S,3S,5S)-2-{(2S)-2-Amino-2-[8-(benzyloxy-ethyl)-8-aza-bicyclo[3.2.1]oct-3-yl]-exo-ethanoyl}-2-azabicyclo[3.1.0]hexane-3-carbonitrile trifluoroacetic acid salt] was 21% inhibition at 10 nM.
Still for that read-out and setting: the value for `N#Cc1ccc(N2C3CCC2CC([C@H](N)C(=O)N2[C@H](C#N)C[C@@H]4C[C@@H]42)C3)cc1.O=C(O)C(F)(F)F` (stereo partly drawn) [Compound 52, (1S,3S,5S)-2-{(2S)-2-Amino-2-[8-(4-cyano-phenyl)-8-aza-bicyclo[3.2.1]oct-3-yl]-exo-ethanoyl}-2-azabicyclo[3.1.0]hexane-3-carbonitrile trifluoro acetic acid salt] was 25% inhibition at 10 nM.
On the same count and under the same terms, with `N#C[C@@H]1C[C@@H]2C[C@@H]2N1C(=O)[C@@H](N)C1CC2CCC(C1)N2Cc1ccncc1.O=C(O)C(F)(F)F` (stereo partly drawn) [Compound 55, (1S,3S,5S)-2-{(2S)-2-Amino-2-[8-(pyridin-4-yl-methyl)-8-aza-bicyclo[3.2.1]oct-3-yl]-exo-ethanoyl}-2-azabicyclo[3.1.0]hexane-3-carbonitrile trifluoroacetic acid salt] the figure was 45% inhibition at 10 nM.

Staying with this assay, now noted: compound 100 nM; relative to vehicle controls.
Turning to `N#C[C@@H]1C[C@@H]2C[C@@H]2N1C(=O)[C@@H](N)C1CC2CCC(C1)N2C(=O)C12CC3CC(CC(C3)C1)C2.O=C(O)C(F)(F)F` (stereo partly drawn) [Compound 43, (1S,3S,5S)-2-{(2S)-2-Amino-2-[8-(adamantane-1-carbonyl)-8-aza-bicyclo[3.2.1]oct-3-yl]-exo-ethanoyl}-2-azabicyclo[3.1.0]hexane-3-carbonitrile trifluoroacetic acid salt], the “% inhibition at 100 nM” value is recorded as 49% inhibition at 100 nM.
On the same count and under the same terms, with `N#C[C@@H]1C[C@@H]2C[C@@H]2N1C(=O)[C@@H](N)C1CC2CCC(C1)N2CC12CC3CC(CC(C3)C1)C2.O=C(O)C(F)(F)F` (stereo partly drawn) [Compound 49, (1S,3S,5S)-2-{(2S)-2-Amino-2-[8-(adamantan-1-ylmethyl)-8-aza-bicyclo[3.2.1]oct-3-yl]-exo-ethanoyl}-2-azabicyclo[3.1.0]hexane-3-carbonitrile trifluoroacetic acid salt] the figure was 60% inhibition at 100 nM.

The assay is the same for the next values; noted with them: compound 1000 nM; relative to vehicle controls; read-out: % inhibition at 1000 nM.
The term inhibition denotes the relative decrease from the control value, in per cent. Consider `N[C@H](C(=O)N1[C@H](C(=O)O)C[C@@H]2C[C@@H]21)C1CC2CCC(C1)N2C(=O)c1ccc2c(c1)OCO2` (stereo partly drawn) [Compound 46, (1S,3S,5S)-2-{(2S)-2-Amino-2-[8-(benzo[1,3]-dioxole-5-carbonyl)-8-aza-bicyclo[3.2.1]-oct-3-yl]-exo-ethanoyl}-2-azabicyclo[3.1.0]hexane-3-carboxylic acid hydrochloride], for which the inhibition at 1 µM is 13%.

The assay is the same for the next values; noted with them: human recombinant DPP-IV, 50 μM Gly-Pro-AMC, 30 min at 30° C.
As a reminder, the IC50 is the concentration needed to halve the response being measured. As for `N#C[C@@H]1C[C@@H]2C[C@@H]2N1C(=O)[C@@H](N)C1CC2CCC(C1)N2C(=O)c1ccccn1` (stereo partly drawn) [Compound 39, (1S,3S,5S)-2-{(2S)-2-Amino-2-[8-(pyridine-2-carbonyl)-8-aza-bicyclo[3.2.1]oct-3-yl]-exo-ethanoyl}-2-azabicyclo[3.1.0]hexane-3-carbonitrile trifluoroacetic acid salt], the IC50 came out at 11.7 nM.
Same read-out and setting: the value for `N#C[C@@H]1C[C@@H]2C[C@@H]2N1C(=O)[C@@H](N)C1CC2CCC(C1)N2C(=O)c1ccncc1F` (stereo partly drawn) [Compound 41, (1S,3S,5S)-2-{(2S)-2-Amino-2-[8-(3-fluoropyridine-4-carbonyl)-8-aza-bicyclo[3.2.1]oct-3-yl]-exo-ethanoyl}-2-azabicyclo[3.1.0]hexane-3-carbonitrile trifluoroacetic acid salt] was 4.92 nM; that for `N#C[C@@H]1C[C@@H]2C[C@@H]2N1C(=O)[C@@H](N)C1CC2CCC(C1)N2S(=O)(=O)c1cc(F)cc(F)c1` (stereo partly drawn) [Compound 42, (1S,3S,5S)-2-{(2S)-2-Amino-2-[8-(3,5-difluorobenzenesulfonyl)-8-aza-bicyclo[3.2.1]oct-3-yl]-exo-ethanoyl}-2-azabicyclo[3.1.0]hexane-3-carbonitrile trifluoroacetic acid salt] was 9 nM.
Consider `N#C[C@@H]1C[C@@H]2C[C@@H]2N1C(=O)[C@@H](N)C1CC2CCC(C1)N2C(=O)c1ccc2c(c1)OCO2` (stereo partly drawn) [Compound 44, (1S,3S,5S)-2-{(2S)-2-Amino-2-[8-(benzo[1,3]-dioxole-5-carbonyl)-8-aza-bicyclo[3.2.1]oct-3-yl]-exo-ethanoyl}-2-azabicyclo[3.1.0]-hexane-3-carbonitrile trifluoroacetic acid salt], for which the IC50 is 2.4 nM.
As to `N#Cc1ccc(N2C3CCC2CC([C@H](N)C(=O)N2[C@H](C#N)C[C@@H]4C[C@@H]42)C3)nc1` (stereo partly drawn) [Compound 51, (1S,3S,5S)-2-{(2S)-2-Amino-2-[8-(5-cyanopyridine-2-yl)-8-aza-bicyclo[3.2.1]oct-3-yl]-exo-ethanoyl}-2-azabicyclo[3.1.0]hexane-3-carbonitrile trifluoroacetic acid salt], the IC50 amounted to 9.6 nM.
The same measure, in the same setting: the value for `CS(=O)(=O)c1ccc(N2C3CCC2CC([C@H](N)C(=O)N2[C@H](C#N)C[C@@H]4C[C@@H]42)C3)cc1` (stereo partly drawn) [Compound 53, (1S,3S,5S)-2-{(2S)-2-Amino-2-[8-(4-methanesulfonylphenyl)-8-aza-bicyclo[3.2.1]oct-3-yl]-exo-ethanoyl}-2-azabicyclo[3.1.0]hexane-3-carbonitrile trifluoroacetic acid salt] was 19.7 nM; that for `N#C[C@@H]1C[C@@H]2C[C@@H]2N1C(=O)[C@@H](N)C1CC2CCC(C1)N2C(=O)Cc1ccncc1` (stereo partly drawn) [Compound 54, (1S,3S,5S)-2-{(2S)-2-Amino-2-[8-(2-pyridin-4-yl-acetyl)-8-aza-bicyclo[3.2.1]oct-3-yl]-exo-ethanoyl}-2-azabicyclo[3.1.0]hexane-3-carbonitrile di trifluoroacetic acid salt] was 3.3 nM.
On the same count and under the same terms, the value for `CS(=O)(=O)N1C2CCC1CC([C@H](N)C(=O)N1[C@H](C#N)C[C@@H]3C[C@@H]31)C2` (stereo partly drawn) [Compound 56, (1S,3S,5S)-2-{(2S)-2-Amino-2-[8-(methanesulfonyl)-8-aza-bicyclo[3.2.1]oct-3-yl]-exo-ethanoyl}-2-azabicyclo[3.1.0]hexane-3-carbonitrile trifluoroacetic acid salt] was 4.14 nM; that for `N#C[C@@H]1C[C@@H]2C[C@@H]2N1C(=O)[C@@H](N)C1CC2CCC(C1)N2S(=O)(=O)c1cccs1` (stereo partly drawn) [Compound 57, (1S,3S,5S)-2-{(2S)-2-Amino-2-[8-(thiophene-2-sulfonyl)-8-aza-bicyclo[3.2.1]oct-3-yl]-exo-ethanoyl}-2-azabicyclo[3.1.0]hexane-3-carbonitrile trifluoroacetic acid salt] was 8 nM.

Staying with this assay, now noted: read-out: % inhibition at 1000 nM.
With `NC(=O)[C@@H]1C[C@@H]2C[C@@H]2N1C(=O)[C@@H](N)C1CC2CCC(C1)N2C(=O)c1ccc2c(c1)OCO2` (stereo partly drawn) [Compound 45, (1S,3S,5S)-2-{(2S)-2-Amino-2-[8-(benzo-[1,3]dioxole-5-carbonyl)-8-aza-bicyclo[3.2.1]oct-3-yl]-exo-ethanoyl}-2-azabicyclo[3.1.0]-hexane-3-carboxamide trifluoro acetic acid salt], the inhibition at 1 µM was 12%.
